Reference: paper PMC3634512, “Inhibition of Human Transthyretin Aggregation by Non-Steroidal Anti-Inflammatory Compounds: A Structural and Thermodynamic Analysis” (International Journal of Molecular Sciences, 2013)

Tests used:
[1] = target: T1, Transthyretin (L55P variant) (Homo sapiens, UniProt P02766, L75P); test: ANS displacement from the hormone binding site (apparent Kd)
T1 construct: gene TTR; L55P TTR homotetramer

Transthyretin (WT-TTR) = target: T2, Transthyretin (WT-TTR) (Homo sapiens, UniProt P02766); test: crystal structure (soaked crystals); ANS displacement (apparent Kd); type: binding
T2 construct: WT-TTR homotetramer

Question: Which results are given for Cc1ccc(Nc2c(F)cccc2Cl)c(CC(=O)O)c1 [LUM, lumiracoxib]?
Answer: Kd [1]: 1700 nM; Kd (Transthyretin (WT-TTR)): 1400 nM
